For the assay, the system named is BRCA1-deficient human breast cancer cell line, MX-1. Briefly: Tumor growth delay in MX-1 human breast cancer model in mice. Type of assay: in vivo. Set-up: Median TTE: unit not given beside the values. The method, then: Cancerous cells from the BRCA1-deficient human breast cancer cell line, MX-1, were injected subcutaneously in female mice. […]
Animal weight, clinical observations and tumor volume were monitored twice/week until the endpoint (2000 mm^3 of tumor volume or Day 88) was met.
Efficacy was measured by tumor growth delay and regression response rate.

Where [1] appears, read: rucaparib 30 mg/kg po q.d. × 21.
[2] abbreviates: rucaparib 150 mg/kg po q.d. × 21.

In the case of “pentaerythritol-based multi-arm polymer conjugate of irinotecan [PBMAPCI]”, under “PBMAPCI 10 mg/kg iv qwk × 4”, the “Median TTE” value is given as 57, the “Regressions CR” value is on record as 10%, the “Regressions PR” value amounted to 0% and the “Regressions TFS” value was 10%. For the same compound, for the setting “PBMAPCI 10 mg/kg iv qwk × 4”, the “Statistical Results For Groups Tested” value is given as “Significant against vehicle (p ≤ 0.001)”, the T-C is on record as 32 days and the TGD was found to be 129%. Further, for the setting “PBMAPCI 50 mg/kg iv qwk × 4”, the “Median TTE” value worked out at 88, the “Regressions CR” value came out at 100%, the “Regressions PR” value is 0% and the “Regressions TFS” value stood at 100%. Where the note is “PBMAPCI 50 mg/kg iv qwk × 4”, the “Statistical Results For Groups Tested” value was “Significant against vehicle (p ≤ 0.001)”, the T-C is 63 days and the TGD was 252%.

On to `CNCc1ccc(-c2[nH]c3cc(F)cc4c3c2CCNC4=O)cc1` [rucaparib], for which, under setting [1], the “Median TTE” value is 39, the “Regressions CR” value is given as 0%, the “Regressions PR” value came out at 0% and the “Regressions TFS” value was determined as 0%. Besides, under setting [1], the “Statistical Results For Groups Tested” value is given as “Significant against vehicle (p ≤ 0.05)”, the T-C turned out to be 14 days and the TGD worked out at 56%. Besides, under setting [2], the “Median TTE” value worked out at 43, the “Regressions CR” value stood at 0%, the “Regressions PR” value was 0% and the “Regressions TFS” value is given as 0%. Under setting [2], the “Statistical Results For Groups Tested” value is listed as “Significant against vehicle (p ≤ 0.01)”, the T-C was 18 days and the TGD is recorded as 73%. Besides, under “single agent, at both the 30 mg/kg and 150 mg/kg dosages”, the “efficacy (mean tumor volumes, FIG. 1)” value is given as “only marginally effective”.

The record behind these values is patent US10653689B2, “Combination-based treatment method” (priority 2014, dated 2020).
